Measurements: PubChem BioAssay (NCI)
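1) Cells in 96-well plates. 2) Compound, 48 h, 5 concentrations. 3) Linear interpolation between surrounding doses. 4) Unreached endpoint = highest concentration. TGI marks complete inhibition of growth.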

Experiments:
Test in all cases: inhibition of tumour cell growth, NCI panel, 48 h
786-0 renal = test system: 786-0 renal
A549 NSCLC = test system: A549 NSCLC
ACHN renal = test system: ACHN renal
BT-549 breast = test system: BT-549 breast
CAKI-1 renal = test system: CAKI-1 renal
CCRF-CEM leukemia = test system: CCRF-CEM leukemia
COLO 205 colon = test system: COLO 205 colon
DU-145 prostate = test system: DU-145 prostate
EKVX NSCLC = test system: EKVX NSCLC
HCC-2998 colon = test system: HCC-2998 colon
HCT-116 colon = test system: HCT-116 colon
HCT-15 colon = test system: HCT-15 colon
HOP-62 NSCLC = test system: HOP-62 NSCLC
HS 578T breast = test system: HS 578T breast
HT29 colon = test system: HT29 colon
IGROV1 ovarian = test system: IGROV1 ovarian
K-562 leukemia = test system: K-562 leukemia
KM12 colon = test system: KM12 colon
M14 melanoma = test system: M14 melanoma
MALME-3M melanoma = test system: MALME-3M melanoma
MCF7 breast = test system: MCF7 breast
MDA-MB-231 breast = test system: MDA-MB-231 breast
MDA-MB-435 = test system: MDA-MB-435
MDA-N = test system: MDA-N
MOLT-4 leukemia = test system: MOLT-4 leukemia
NCI-H226 lung = test system: NCI-H226 lung
NCI-H23 lung = test system: NCI-H23 lung
NCI-H460 lung = test system: NCI-H460 lung
NCI/ADR-RES ovarian = test system: NCI/ADR-RES ovarian
OVCAR-3 ovarian = test system: OVCAR-3 ovarian
OVCAR-4 ovarian = test system: OVCAR-4 ovarian
OVCAR-5 ovarian = test system: OVCAR-5 ovarian
OVCAR-8 ovarian = test system: OVCAR-8 ovarian
PC-3 prostate = test system: PC-3 prostate
RPMI-8226 leukemia = test system: RPMI-8226 leukemia
RXF 393 renal = test system: RXF 393 renal
SF-268 CNS = test system: SF-268 CNS
SF-295 CNS = test system: SF-295 CNS
SK-MEL-2 melanoma = test system: SK-MEL-2 melanoma
SK-MEL-28 melanoma = test system: SK-MEL-28 melanoma
SK-MEL-5 melanoma = test system: SK-MEL-5 melanoma
SK-OV-3 ovarian = test system: SK-OV-3 ovarian
SN12C renal = test system: SN12C renal
SNB-19 CNS = test system: SNB-19 CNS
SNB-75 CNS = test system: SNB-75 CNS
SW-620 colon = test system: SW-620 colon
T-47D breast = test system: T-47D breast
TK-10 renal = test system: TK-10 renal
U251 CNS = test system: U251 CNS
UACC-257 melanoma = test system: UACC-257 melanoma
UACC-62 melanoma = test system: UACC-62 melanoma
UO-31 renal = test system: UO-31 renal
A498 renal = test system: A498 renal
HL-60(TB) leukemia = test system: HL-60(TB) leukemia
HOP-92 NSCLC = test system: HOP-92 NSCLC
LOX IMVI melanoma = test system: LOX IMVI melanoma
SF-539 CNS = test system: SF-539 CNS

SMILES: COc1ccc(/C=N/NC(=O)c2cnc3[nH]c(=O)n(C)c(=O)c3c2)cc1
- TGI (786-0 renal): > 100 µM
- TGI (A549 NSCLC): > 100 µM
- TGI (ACHN renal): > 100 µM
- TGI (BT-549 breast): > 100 µM
- TGI (CAKI-1 renal): > 100 µM
- TGI (CCRF-CEM leukemia): > 100 µM
- TGI (COLO 205 colon): > 100 µM
- TGI (DU-145 prostate): > 100 µM
- TGI (EKVX NSCLC): > 100 µM
- TGI (HCC-2998 colon): > 100 µM
- TGI (HCT-116 colon): > 100 µM
- TGI (HCT-15 colon): > 100 µM
- TGI (HOP-62 NSCLC): > 100 µM
- TGI (HS 578T breast): > 100 µM
- TGI (HT29 colon): > 100 µM
- TGI (IGROV1 ovarian): > 100 µM
- TGI (K-562 leukemia): > 100 µM
- TGI (KM12 colon): > 100 µM
- TGI (M14 melanoma): > 100 µM
- TGI (MALME-3M melanoma): > 100 µM
- TGI (MCF7 breast): > 100 µM
- TGI (MDA-MB-231 breast): 86.8 µM
- TGI (MDA-MB-435): > 100 µM
- TGI (MDA-N): > 100 µM
- TGI (MOLT-4 leukemia): > 100 µM
- TGI (NCI-H226 lung): > 100 µM
- TGI (NCI-H23 lung): > 100 µM
- TGI (NCI-H460 lung): > 100 µM
- TGI (NCI/ADR-RES ovarian): > 100 µM
- TGI (OVCAR-3 ovarian): > 100 µM
- TGI (OVCAR-4 ovarian): > 100 µM
- TGI (OVCAR-5 ovarian): > 100 µM
- TGI (OVCAR-8 ovarian): > 100 µM
- TGI (PC-3 prostate): > 100 µM
- TGI (RPMI-8226 leukemia): > 100 µM
- TGI (RXF 393 renal): > 100 µM
- TGI (SF-268 CNS): > 100 µM
- TGI (SF-295 CNS): > 100 µM
- TGI (SK-MEL-2 melanoma): > 100 µM
- TGI (SK-MEL-28 melanoma): > 100 µM
- TGI (SK-MEL-5 melanoma): > 100 µM
- TGI (SK-OV-3 ovarian): > 100 µM
- TGI (SN12C renal): > 100 µM
- TGI (SNB-19 CNS): 98.8 µM
- TGI (SNB-75 CNS): 38.6 µM
- TGI (SW-620 colon): > 100 µM
- TGI (T-47D breast): > 100 µM
- TGI (TK-10 renal): > 100 µM
- TGI (U251 CNS): > 100 µM
- TGI (UACC-257 melanoma): > 100 µM
- TGI (UACC-62 melanoma): > 100 µM
- TGI (UO-31 renal): > 100 µM

SMILES: CCc1nc2ccc(C(F)(F)F)cc2[nH]c1=O
- TGI (786-0 renal): > 100 µM
- TGI (A498 renal): > 100 µM
- TGI (A549 NSCLC): > 100 µM
- TGI (ACHN renal): > 100 µM
- TGI (BT-549 breast): > 100 µM
- TGI (CAKI-1 renal): > 100 µM
- TGI (CCRF-CEM leukemia): > 100 µM
- TGI (COLO 205 colon): > 100 µM
- TGI (DU-145 prostate): > 100 µM
- TGI (EKVX NSCLC): > 100 µM
- TGI (HCC-2998 colon): > 100 µM
- TGI (HCT-116 colon): > 100 µM
- TGI (HCT-15 colon): > 100 µM
- TGI (HL-60(TB) leukemia): > 100 µM
- TGI (HOP-62 NSCLC): > 100 µM
- TGI (HOP-92 NSCLC): > 100 µM
- TGI (HS 578T breast): > 100 µM
- TGI (HT29 colon): > 100 µM
- TGI (K-562 leukemia): > 100 µM
- TGI (KM12 colon): > 100 µM
- TGI (LOX IMVI melanoma): > 100 µM
- TGI (M14 melanoma): > 100 µM
- TGI (MALME-3M melanoma): > 100 µM
- TGI (MCF7 breast): > 100 µM
- TGI (MDA-MB-231 breast): > 100 µM
- TGI (MDA-MB-435): > 100 µM
- TGI (MDA-N): > 100 µM
- TGI (MOLT-4 leukemia): > 100 µM
- TGI (NCI-H226 lung): > 100 µM
- TGI (NCI-H23 lung): > 100 µM
- TGI (NCI-H460 lung): > 100 µM
- TGI (NCI/ADR-RES ovarian): > 100 µM
- TGI (OVCAR-3 ovarian): > 100 µM
- TGI (OVCAR-4 ovarian): > 100 µM
- TGI (OVCAR-5 ovarian): > 100 µM
- TGI (OVCAR-8 ovarian): > 100 µM
- TGI (PC-3 prostate): > 100 µM
- TGI (RPMI-8226 leukemia): > 100 µM
- TGI (RXF 393 renal): > 100 µM
- TGI (SF-268 CNS): > 100 µM
- TGI (SF-295 CNS): > 100 µM
- TGI (SF-539 CNS): > 100 µM
- TGI (SK-MEL-2 melanoma): > 100 µM
- TGI (SK-MEL-28 melanoma): > 100 µM
- TGI (SK-MEL-5 melanoma): > 100 µM
- TGI (SK-OV-3 ovarian): > 100 µM
- TGI (SN12C renal): > 100 µM
- TGI (SNB-19 CNS): > 100 µM
- TGI (SNB-75 CNS): > 100 µM
- TGI (SW-620 colon): > 100 µM
- TGI (TK-10 renal): > 100 µM
- TGI (U251 CNS): > 100 µM
- TGI (UACC-257 melanoma): > 100 µM
- TGI (UACC-62 melanoma): > 100 µM
- TGI (UO-31 renal): > 100 µM
